Test results reported in the supplement of paper PMC10331698.
± gives the standard deviation of the averaged measurements.

How the values were obtained:
Assay in all cases: level (log10 ratio to DMSO vehicle control); higher = higher biomarker level / cell amount than vehicle control
[1] = compound: OCC(F)(F)C(F)(F)C(F)(F)C(F)F [1H,1H,5H-Perfluoropentanol] (in DMSO)
Description: (§1)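 BioMAP Diversity Plus panel of 12 human primary cell co-culture systems (3C, 4H, LPS, SAg, BT, BF4T, BE3C, CASM3C, HDF3CGF, KF3CT, MyoF, Mphg). Compounds were added 1 h before stimulation and left for 24 h (MyoF 48 h; BT 72 h for soluble read-outs or 6 d for IgG). Biomarkers were read by ELISA, cytotoxicity by SRB, PBMC viability and proliferation by Alamar Blue. Each well value was divided by the mean of 8 DMSO control wells on the same plate and log10 transformed; duplicate blinded samples were tested at 4 concentrations.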

[2] = compound: O=S(=O)(O)CCC(F)(F)C(F)(F)C(F)(F)C(F)(F)C(F)(F)C(F)(F)C(F)(F)C(F)(F)F [8:2 Fluorotelomer sulfonic acid] (in DMSO)
Description: as §1

[3] = compound: O=S(=O)(O)C(F)(F)C(F)(F)OC(F)(F)C(F)(F)F [Perfluoro(2-ethoxyethane)sulfonic acid] (in DMSO)
Description: as §1

[4] = compound: CO[Si](C)(CCC(F)(F)C(F)(F)C(F)(F)C(F)(F)C(F)(F)C(F)(F)F)OC [Dimethoxymethyl((perfluorohexyl)ethyl)silane] (in DMSO)
Description: as §1

[5] = compound: CN(C(=O)C(F)(F)C(F)(F)C(F)(F)F)[Si](C)(C)C [N-Methyl-N-trimethylsilylheptafluorobutyramide] (in DMSO)
Description: as §1

[6] = compound: O=C(O)C(F)(F)C(F)(F)C(F)(F)OC(F)(F)F [Perfluoro(4-methoxybutanoic) acid] (in DMSO)
Description: as §1

[7] = compound: C=C(C)C(=O)OCCC(F)(F)C(F)(F)C(F)(F)C(F)(F)C(F)(F)C(F)(F)C(F)(F)C(F)(F)F [8:2 Fluorotelomer methacrylate] (in DMSO)
Description: as §1

Which “level (log10)” value ([1]; 6700 nM) does the source give for BF4T:CCL2/MCP-1 here?
The value was -0.0175 ± 0.036.

What about the “level (log10)” value ([1]; 20000 nM) of the same test system?
The value was 0.0495 ± 0.023.

And the “level (log10)” value ([1]; 60000 nM)?
The value was 0.0305 ± 0.074.

And the “level (log10)” value ([2]; 6700 nM)?
Its value is 0.037 ± 0.023.

What about the “level (log10)” value ([2]; 20000 nM) of the same test system?
The value was -0.019 ± 0.0028.

And the “level (log10)” value ([2]; 60000 nM)?
The value was -0.002 ± 0.034.

And the “level (log10)” value ([3]; 6700 nM)?
The value was 0.0155 ± 0.0064.

What about the “level (log10)” value ([3]; 20000 nM) of the same test system?
Its value is 0.0155 ± 0.0064.

What about the “level (log10)” value ([3]; 60000 nM) of the same test system?
The value was 0.0315 ± 0.039.

And the “level (log10)” value ([4]; 6700 nM)?
Its value is -0.0175 ± 0.00071.

And the “level (log10)” value ([4]; 20000 nM)?
Its value is 0.01 ± 0.021.

And the “level (log10)” value ([5]; 6700 nM)?
The value was 0.002 ± 0.0014.

And the “level (log10)” value ([5]; 20000 nM)?
Its value is 0.002 ± 0.0042.

And the “level (log10)” value ([5]; 60000 nM)?
Its value is 0.018 ± 0.018.

What about the “level (log10)” value ([6]; 6700 nM) of the same test system?
The value was 0.031 ± 0.031.

What about the “level (log10)” value ([6]; 20000 nM) of the same test system?
The value was 0.007 ± 0.054.

What about the “level (log10)” value ([6]; 60000 nM) of the same test system?
Its value is 0.035 ± 0.028.

And the “level (log10)” value ([7]; 6700 nM)?
The value was -0.0005 ± 0.028.

What about the “level (log10)” value ([7]; 20000 nM) of the same test system?
Its value is -0.051 ± 0.031.

What does the source list for BF4T:CCL26/Eotaxin-3?
level (log10) ([1]; 6700 nM): 0.0125 ± 0.059; level (log10) ([1]; 20000 nM): 0.0235 ± 0.005; level (log10) ([1]; 60000 nM): 0.049 ± 0.044; level (log10) ([2]; 6700 nM): -0.0635 ± 0.05; level (log10) ([2]; 20000 nM): -0.179 ± 0.05; level (log10) ([2]; 60000 nM): -0.203 ± 0.0099; level (log10) ([3]; 6700 nM): 0.019 ± 0.0014; level (log10) ([3]; 20000 nM): -0.0075 ± 0.00071; level (log10) ([3]; 60000 nM): 0.039 ± 0.038; level (log10) ([4]; 6700 nM): 0.0285 ± 0.011; level (log10) ([4]; 20000 nM): -0.0075 ± 0.0092; level (log10) ([5]; 6700 nM): -0.0025 ± 0.035; level (log10) ([5]; 20000 nM): -0.0135 ± 0.015; level (log10) ([5]; 60000 nM): 0.0045 ± 0.0078; level (log10) ([6]; 6700 nM): 0.0195 ± 0.06; level (log10) ([6]; 20000 nM): 0.0005 ± 0.0035; level (log10) ([6]; 60000 nM): 0.0065 ± 0.0021; level (log10) ([7]; 6700 nM): -0.02 ± 0.0099; level (log10) ([7]; 20000 nM): -0.069 ± 0.013

Which results are given for BF4T:CD54/ICAM-1?
level (log10) ([1]; 6700 nM): -0.0035 ± 0.019; level (log10) ([1]; 20000 nM): 0.01 ± 0.013; level (log10) ([1]; 60000 nM): 0.02 ± 0.021; level (log10) ([2]; 6700 nM): -0.006 ± 0.0014; level (log10) ([2]; 20000 nM): -0.0175 ± 0.00071; level (log10) ([2]; 60000 nM): -0.0325 ± 0.013; level (log10) ([3]; 6700 nM): -0.003 ± 0.0028; level (log10) ([3]; 20000 nM): -0.0125 ± 0.0064; level (log10) ([3]; 60000 nM): -0.008 ± 0.017; level (log10) ([4]; 6700 nM): -0.006 ± 0.0071; level (log10) ([4]; 20000 nM): -0.008 ± 0.0099; level (log10) ([5]; 6700 nM): -0.0145 ± 0.0064; level (log10) ([5]; 20000 nM): -0.0045 ± 0.023; level (log10) ([5]; 60000 nM): -0.0115 ± 0.00071; level (log10) ([6]; 6700 nM): -0.005 ± 0.024; level (log10) ([6]; 20000 nM): -0.013 ± 0.027; level (log10) ([6]; 60000 nM): -0.0005 ± 0.0035; level (log10) ([7]; 6700 nM): -0.023 ± 0.0099; level (log10) ([7]; 20000 nM): 0.001 ± 0.0099

Which “level (log10)” value ([1]; 6700 nM) does the source give for BF4T:CD90 here?
The value was -0.011 ± 0.0085.

What about the “level (log10)” value ([1]; 20000 nM) of the same test system?
Its value is 0.0005 ± 0.00071.

What about the “level (log10)” value ([1]; 60000 nM) of the same test system?
Its value is 0.003 ± 0.0057.

What about the “level (log10)” value ([2]; 6700 nM) of the same test system?
The value was -0.008 ± 0.0028.

What about the “level (log10)” value ([2]; 20000 nM) of the same test system?
Its value is -0.018 ± 0.0014.

And the “level (log10)” value ([2]; 60000 nM)?
The value was -0.0355 ± 0.0092.

What about the “level (log10)” value ([3]; 6700 nM) of the same test system?
The value was -0.01 ± 0.0085.

And the “level (log10)” value ([3]; 20000 nM)?
Its value is -0.0185 ± 0.0092.

What about the “level (log10)” value ([3]; 60000 nM) of the same test system?
The value was -0.0185 ± 0.0021.

What about the “level (log10)” value ([4]; 6700 nM) of the same test system?
The value was 0.0085 ± 0.018.

What about the “level (log10)” value ([4]; 20000 nM) of the same test system?
Its value is 0 ± 0.021.

And the “level (log10)” value ([5]; 6700 nM)?
The value was -0.0225 ± 0.022.

And the “level (log10)” value ([5]; 20000 nM)?
The value was -0.006 ± 0.0071.

And the “level (log10)” value ([5]; 60000 nM)?
The value was 0.0065 ± 0.005.

And the “level (log10)” value ([6]; 6700 nM)?
The value was -0.009 ± 0.011.

What about the “level (log10)” value ([6]; 20000 nM) of the same test system?
The value was -0.006 ± 0.0099.

And the “level (log10)” value ([6]; 60000 nM)?
Its value is 0 ± 0.0028.

And the “level (log10)” value ([7]; 6700 nM)?
Its value is -0.0165 ± 0.015.

What about the “level (log10)” value ([7]; 20000 nM) of the same test system?
Its value is 0 ± 0.0099.
